Assay results from PMC11207571, “Applicability of MDR1 Overexpressing Abcb1KO-MDCKII Cell Lines for Investigating In Vitro Species Differences and Brain Penetration Prediction” (Pharmaceutics, 2024).

Columns and labels:
mouse Mdr1a = mouse Mdr1a (Mus musculus, UniProt P21447); assay: Bidirectional transport assay, efflux ratio in Abcb1KO-MDCKII mMDR1 cells; details: mouse, pH 7.4
Experimental: (§1) Eluent A consisted of 0.1% formic acid in water, eluent B consisted of 0.1% formic acid in acetonitrile. Then, 10 µL samples were injected into the HPLC-MS/MS system. Mass spectrometric detection was performed in SRM mode, and ion transitions for each analyte were optimized during method development. Samples were analyzed in pools, with each pool containing three to four analytes.

cynomolgus monkey Mdr1 = cynomolgus monkey Mdr1 (Macaca fascicularis, UniProt Q8HZQ6); assay: Bidirectional transport assay, efflux ratio in Abcb1KO-MDCKII cyMDR1 cells; details: cynomolgus monkey, pH 7.4
Experimental: as §1

[1] = Bidirectional transport assay, efflux ratio in Abcb1KO-MDCKII-Mock control cells; details: dog, MDCK, pH 7.4
Experimental: as §1

human MDR1 = human MDR1 (Homo sapiens, UniProt P08183); assay: Bidirectional transport assay, efflux ratio in Abcb1KO-MDCKII hMDR1 cells; details: human, MDCK-MDR1, pH 7.4
Experimental: as §1

human BCRP = target: T1, human BCRP (Homo sapiens, UniProt Q9UNQ0); assay: Bidirectional transport assay, efflux ratio in MDCKII-BCRP cells; details: for efflux ratio at 120 min, 1 µM: human, pH 7.4
T1 sequence (Q9UNQ0 1-655): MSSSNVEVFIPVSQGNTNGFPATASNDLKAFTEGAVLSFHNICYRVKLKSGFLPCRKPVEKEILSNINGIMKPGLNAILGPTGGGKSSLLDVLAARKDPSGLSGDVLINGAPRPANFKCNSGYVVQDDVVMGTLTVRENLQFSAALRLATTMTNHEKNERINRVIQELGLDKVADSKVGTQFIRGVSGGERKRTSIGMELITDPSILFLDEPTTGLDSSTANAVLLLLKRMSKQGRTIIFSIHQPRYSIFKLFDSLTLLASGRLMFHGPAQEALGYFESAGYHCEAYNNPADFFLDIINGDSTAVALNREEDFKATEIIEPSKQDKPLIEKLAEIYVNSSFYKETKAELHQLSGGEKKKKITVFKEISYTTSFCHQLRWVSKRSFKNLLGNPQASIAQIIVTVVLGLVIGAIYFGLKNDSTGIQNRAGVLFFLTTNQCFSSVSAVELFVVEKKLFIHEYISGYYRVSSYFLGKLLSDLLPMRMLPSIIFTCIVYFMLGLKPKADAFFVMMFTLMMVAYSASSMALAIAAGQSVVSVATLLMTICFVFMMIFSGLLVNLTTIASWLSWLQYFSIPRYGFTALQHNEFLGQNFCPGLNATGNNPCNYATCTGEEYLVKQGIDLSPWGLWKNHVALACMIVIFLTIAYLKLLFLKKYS
Experimental: as §1

rat Mdr1a = rat Mdr1a (Rattus norvegicus, UniProt Q6PSM0); assay: Bidirectional transport assay, efflux ratio in Abcb1KO-MDCKII rMDR1 cells; details: rat, pH 7.4
Experimental: as §1

human MDR1, sequence (P08183 whole entry): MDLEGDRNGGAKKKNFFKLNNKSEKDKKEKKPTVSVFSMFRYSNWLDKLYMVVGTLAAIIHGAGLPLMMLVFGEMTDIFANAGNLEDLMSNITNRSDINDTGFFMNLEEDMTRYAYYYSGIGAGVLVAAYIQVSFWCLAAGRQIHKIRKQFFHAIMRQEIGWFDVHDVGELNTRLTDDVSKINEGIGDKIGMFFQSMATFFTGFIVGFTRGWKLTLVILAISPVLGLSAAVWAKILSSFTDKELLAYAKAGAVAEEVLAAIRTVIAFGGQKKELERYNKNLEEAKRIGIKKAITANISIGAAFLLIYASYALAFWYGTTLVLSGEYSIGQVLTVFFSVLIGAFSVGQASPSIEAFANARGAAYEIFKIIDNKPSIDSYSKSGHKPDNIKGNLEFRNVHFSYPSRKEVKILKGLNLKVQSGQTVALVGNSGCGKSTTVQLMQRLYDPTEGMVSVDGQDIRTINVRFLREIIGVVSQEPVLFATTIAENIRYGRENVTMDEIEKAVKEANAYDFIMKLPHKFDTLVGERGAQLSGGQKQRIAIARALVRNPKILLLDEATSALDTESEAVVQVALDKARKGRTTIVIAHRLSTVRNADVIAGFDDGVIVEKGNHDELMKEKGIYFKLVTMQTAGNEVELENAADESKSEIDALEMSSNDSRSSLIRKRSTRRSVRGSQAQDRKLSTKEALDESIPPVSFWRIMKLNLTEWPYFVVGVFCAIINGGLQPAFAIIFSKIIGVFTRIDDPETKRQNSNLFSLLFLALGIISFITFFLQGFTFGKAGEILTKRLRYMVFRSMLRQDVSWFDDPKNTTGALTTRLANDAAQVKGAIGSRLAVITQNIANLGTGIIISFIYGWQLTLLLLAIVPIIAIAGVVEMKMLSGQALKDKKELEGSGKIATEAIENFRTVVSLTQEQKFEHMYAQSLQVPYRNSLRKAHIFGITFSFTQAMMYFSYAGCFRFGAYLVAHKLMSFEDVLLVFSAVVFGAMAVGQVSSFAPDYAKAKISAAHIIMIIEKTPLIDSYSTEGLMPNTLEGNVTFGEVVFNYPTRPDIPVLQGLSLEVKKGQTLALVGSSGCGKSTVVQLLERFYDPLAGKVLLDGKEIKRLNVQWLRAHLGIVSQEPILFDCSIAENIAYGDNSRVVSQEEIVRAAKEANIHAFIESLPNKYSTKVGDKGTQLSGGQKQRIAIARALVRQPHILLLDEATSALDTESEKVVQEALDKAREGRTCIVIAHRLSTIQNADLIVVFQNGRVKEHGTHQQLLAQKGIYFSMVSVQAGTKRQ
mouse Mdr1a, sequence (P21447 whole entry): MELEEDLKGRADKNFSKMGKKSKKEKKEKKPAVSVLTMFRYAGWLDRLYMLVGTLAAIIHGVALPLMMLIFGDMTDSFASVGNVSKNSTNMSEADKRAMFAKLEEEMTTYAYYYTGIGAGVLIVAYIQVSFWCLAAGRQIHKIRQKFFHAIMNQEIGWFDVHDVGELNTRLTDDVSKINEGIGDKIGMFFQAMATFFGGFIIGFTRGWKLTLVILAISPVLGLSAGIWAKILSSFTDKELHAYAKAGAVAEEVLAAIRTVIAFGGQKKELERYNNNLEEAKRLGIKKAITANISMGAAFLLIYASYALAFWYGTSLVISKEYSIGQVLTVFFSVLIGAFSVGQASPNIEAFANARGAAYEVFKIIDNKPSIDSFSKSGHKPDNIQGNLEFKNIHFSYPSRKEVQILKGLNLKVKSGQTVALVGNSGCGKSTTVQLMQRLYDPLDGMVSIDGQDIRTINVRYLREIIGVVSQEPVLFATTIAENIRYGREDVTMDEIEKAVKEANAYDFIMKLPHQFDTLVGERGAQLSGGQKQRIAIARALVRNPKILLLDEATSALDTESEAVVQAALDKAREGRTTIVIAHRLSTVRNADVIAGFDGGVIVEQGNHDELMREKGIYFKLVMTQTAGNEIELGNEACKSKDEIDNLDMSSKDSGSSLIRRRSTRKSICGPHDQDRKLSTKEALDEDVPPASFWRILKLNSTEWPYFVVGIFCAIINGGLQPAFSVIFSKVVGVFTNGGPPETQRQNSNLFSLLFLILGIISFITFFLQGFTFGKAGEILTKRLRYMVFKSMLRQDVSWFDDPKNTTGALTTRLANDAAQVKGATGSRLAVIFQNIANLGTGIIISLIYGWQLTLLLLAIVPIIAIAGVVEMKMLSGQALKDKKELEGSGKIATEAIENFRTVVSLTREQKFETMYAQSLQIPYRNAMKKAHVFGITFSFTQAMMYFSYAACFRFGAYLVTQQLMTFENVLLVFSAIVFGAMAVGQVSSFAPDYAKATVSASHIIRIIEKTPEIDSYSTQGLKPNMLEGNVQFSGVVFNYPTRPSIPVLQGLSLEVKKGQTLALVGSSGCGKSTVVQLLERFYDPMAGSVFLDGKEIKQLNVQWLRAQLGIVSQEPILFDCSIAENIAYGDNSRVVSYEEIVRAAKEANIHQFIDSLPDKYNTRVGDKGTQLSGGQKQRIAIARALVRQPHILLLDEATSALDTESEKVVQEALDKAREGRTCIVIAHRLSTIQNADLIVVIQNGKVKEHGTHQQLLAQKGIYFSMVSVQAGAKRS
rat Mdr1a, sequence (Q6PSM0 1-1272): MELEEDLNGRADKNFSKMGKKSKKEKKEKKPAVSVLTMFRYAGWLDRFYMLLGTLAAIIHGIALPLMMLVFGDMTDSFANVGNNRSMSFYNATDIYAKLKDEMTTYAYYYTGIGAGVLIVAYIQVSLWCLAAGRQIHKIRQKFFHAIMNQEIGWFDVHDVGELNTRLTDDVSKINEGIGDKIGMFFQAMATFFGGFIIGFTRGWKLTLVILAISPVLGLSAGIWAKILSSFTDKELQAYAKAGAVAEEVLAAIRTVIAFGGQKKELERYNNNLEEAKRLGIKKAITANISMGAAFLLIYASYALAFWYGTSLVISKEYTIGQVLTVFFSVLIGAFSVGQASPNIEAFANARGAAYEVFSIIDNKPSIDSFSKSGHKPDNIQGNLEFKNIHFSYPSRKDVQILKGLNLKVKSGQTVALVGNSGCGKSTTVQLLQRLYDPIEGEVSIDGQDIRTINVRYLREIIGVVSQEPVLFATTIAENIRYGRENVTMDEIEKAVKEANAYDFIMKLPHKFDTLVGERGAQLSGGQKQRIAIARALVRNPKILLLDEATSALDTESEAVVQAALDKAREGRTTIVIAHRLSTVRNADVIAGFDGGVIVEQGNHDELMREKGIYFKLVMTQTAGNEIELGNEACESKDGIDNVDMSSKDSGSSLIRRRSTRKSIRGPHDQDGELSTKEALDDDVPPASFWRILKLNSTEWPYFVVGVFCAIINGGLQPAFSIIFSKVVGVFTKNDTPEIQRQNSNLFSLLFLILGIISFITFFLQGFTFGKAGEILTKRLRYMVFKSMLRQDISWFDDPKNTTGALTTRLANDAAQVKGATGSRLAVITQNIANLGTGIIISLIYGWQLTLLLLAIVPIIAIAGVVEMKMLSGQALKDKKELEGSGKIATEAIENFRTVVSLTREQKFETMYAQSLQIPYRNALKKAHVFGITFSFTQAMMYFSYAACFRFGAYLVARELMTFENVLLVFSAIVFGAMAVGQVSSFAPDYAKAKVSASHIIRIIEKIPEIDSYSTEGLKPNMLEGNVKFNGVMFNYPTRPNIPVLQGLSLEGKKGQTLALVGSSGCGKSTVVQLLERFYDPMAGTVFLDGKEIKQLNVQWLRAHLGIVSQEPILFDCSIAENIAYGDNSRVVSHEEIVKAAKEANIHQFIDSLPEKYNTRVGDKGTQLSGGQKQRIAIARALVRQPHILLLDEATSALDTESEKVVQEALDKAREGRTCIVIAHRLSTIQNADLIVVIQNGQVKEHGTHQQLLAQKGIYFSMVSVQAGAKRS
cynomolgus monkey Mdr1, sequence (Q8HZQ6 1-1283): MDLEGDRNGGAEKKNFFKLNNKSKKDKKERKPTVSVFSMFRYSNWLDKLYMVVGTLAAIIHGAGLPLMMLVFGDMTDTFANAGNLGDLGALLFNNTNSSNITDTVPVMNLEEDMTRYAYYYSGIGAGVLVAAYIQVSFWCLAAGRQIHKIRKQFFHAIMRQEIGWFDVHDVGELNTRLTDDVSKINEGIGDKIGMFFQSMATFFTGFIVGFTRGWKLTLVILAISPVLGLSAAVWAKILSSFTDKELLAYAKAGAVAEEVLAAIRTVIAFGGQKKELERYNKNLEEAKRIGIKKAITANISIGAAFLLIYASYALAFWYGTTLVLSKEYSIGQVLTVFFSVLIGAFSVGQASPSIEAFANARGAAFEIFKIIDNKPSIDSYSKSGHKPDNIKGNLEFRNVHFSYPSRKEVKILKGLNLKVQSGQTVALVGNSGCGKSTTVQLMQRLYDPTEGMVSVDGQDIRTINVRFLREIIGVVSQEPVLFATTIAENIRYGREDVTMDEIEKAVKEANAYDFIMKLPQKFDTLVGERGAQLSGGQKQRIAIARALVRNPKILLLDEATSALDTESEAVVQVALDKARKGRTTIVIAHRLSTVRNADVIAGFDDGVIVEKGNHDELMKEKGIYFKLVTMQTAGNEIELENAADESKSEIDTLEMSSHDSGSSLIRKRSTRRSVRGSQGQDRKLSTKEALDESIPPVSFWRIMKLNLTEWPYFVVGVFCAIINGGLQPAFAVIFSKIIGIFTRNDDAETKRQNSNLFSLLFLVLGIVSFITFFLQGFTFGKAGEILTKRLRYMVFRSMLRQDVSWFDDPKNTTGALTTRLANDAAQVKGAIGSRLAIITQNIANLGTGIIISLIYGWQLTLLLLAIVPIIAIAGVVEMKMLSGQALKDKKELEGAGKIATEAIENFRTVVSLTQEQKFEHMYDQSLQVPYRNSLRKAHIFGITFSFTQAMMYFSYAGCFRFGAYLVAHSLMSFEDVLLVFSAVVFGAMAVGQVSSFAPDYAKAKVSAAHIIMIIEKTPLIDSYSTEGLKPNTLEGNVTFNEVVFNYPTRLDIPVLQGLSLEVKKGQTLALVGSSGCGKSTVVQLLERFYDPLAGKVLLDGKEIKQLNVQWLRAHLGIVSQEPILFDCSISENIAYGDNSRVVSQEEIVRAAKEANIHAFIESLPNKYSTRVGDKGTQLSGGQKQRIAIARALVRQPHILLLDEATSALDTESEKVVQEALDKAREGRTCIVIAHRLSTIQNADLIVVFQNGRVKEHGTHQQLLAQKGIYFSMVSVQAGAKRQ

Row | Structure (SMILES) | efflux ratio at 120 min, 1 µM (mouse Mdr1a) | efflux ratio at 120 min, 1 µM (cynomolgus monkey Mdr1) | efflux ratio at 120 min, 1 µM [1] | efflux ratio at 120 min, 1 µM (human MDR1) | efflux ratio at 120 min, 1 µM (human BCRP) | efflux ratio at 120 min, 1 µM (rat Mdr1a) | ER in MDCKII BCRP (human BCRP; 1 µM, 120 min, mean ± SD)
1 | Clc1cccc(Cl)c1N=C1NCCN1 [Clonidine] | 0.99 ± 0.06 | 0.8 ± 0.05 | 0.93 ± 0.03 | 0.78 ± 0.02 | 0.89 ± 0.04 | 0.98 ± 0.05 | 
2 | COc1cccc2c1C(=O)c1c(O)c3c(c(O)c1C2=O)C[C@@](O)(C(C)=O)C[C@@H]3O[C@H]1C[C@H](N)[C@H](O)[C@H](C)O1 [Daunorubicin] | 27.7 ± 2.63 | 83.1 ± 23.2 | 1.04 ± 0.08 | 21.7 ± 5.36 | 62.5 ± 14.1 | 16.9 ± 1.99 | 
3 | COc1ccc2c(c1)[C@]13CCCC[C@@H]1[C@H](C2)N(C)CC3 [Dextromethorphan] | 0.78 ± 0.05 | 0.75 ± 0.06 | 0.98 ± 0.1 | 1.03 ± 0.08 | 0.66 ± 0.08 | 0.94 ± 0.09 | 
4 | CC(C)N(CCC(C(N)=O)(c1ccccc1)c1ccccn1)C(C)C (stereo not drawn) [Disopyramide] | 11.2 ± 0.8 | 17.2 ± 3.18 | 0.71 ± 0.12 | 34.7 ± 2.68 | 4.2 ± 1.09 | 21.1 ± 3.7 | 
5 | CN(C)CCC=C1c2ccccc2COc2ccccc21 [Doxepin] | 0.91 ± 0.11 | 0.71 ± 0.06 | 0.68 ± 0.09 | 0.79 ± 0.13 | 0.54 ± 0.07 | 1.09 ± 0.16 | 
6 | CN(C)CCOC(C)(c1ccccc1)c1ccccn1 (stereo not drawn) [Doxylamine] | 1.25 ± 0.06 | 0.96 ± 0.06 | 0.83 ± 0.03 | 1.68 ± 0.04 | 0.97 ± 0.09 | 1.39 ± 0.03 | 
7 | COc1cc([C@@H]2c3cc4c(cc3[C@@H](O[C@@H]3O[C@@H]5CO[C@@H](C)O[C@H]5[C@H](O)[C@H]3O)[C@H]3COC(=O)[C@H]23)OCO4)cc(OC)c1O [Etoposide] | 6.87 ± 1.42 | 4.41 ± 0.91 | 0.67 ± 0.08 | 11.2 ± 0.8 | 14 ± 2.31 | 5.98 ± 0.85 | 
8 | NC(N)=Nc1nc(CSCCC(N)=NS(N)(=O)=O)cs1 [Famotidine] | 0.97 ± 0.06 | 0.94 ± 0.15 | 1.05 ± 0.04 | 1.08 ± 0.04 | 0.59 ± 0.23 | 1.08 ± 0.09 | 
9 | COc1cc2ncnc(Nc3ccc(F)c(Cl)c3)c2cc1OCCCN1CCOCC1 [Gefitinib] | 8.98 ± 0.82 | 4.65 ± 0.62 | 0.93 ± 0.11 | 30.5 ± 1.66 | 45.1 ± 7.77 | 9.86 ± 0.85 | 
10 | N=C(N)NC(=O)Cc1c(Cl)cccc1Cl [Guanfacine] | 1.62 ± 0.16 | 0.65 ± 0.11 | 0.63 ± 0.06 | 2.04 ± 0.21 | 0.32 ± 0.08 | 0.97 ± 0.12 | 
11 | O=C(CCCN1CCC(O)(c2ccc(Cl)cc2)CC1)c1ccc(F)cc1 [Haloperidol] | 0.72 ± 0.11 | 0.8 ± 0.22 | 0.74 ± 0.1 | 0.89 ± 0.22 | 0.72 ± 0.1 | 0.85 ± 0.15 | 
12 | Cc1ccc(NC(=O)c2ccc(CN3CCN(C)CC3)cc2)cc1Nc1nccc(-c2cccnc2)n1 [Imatinib] | 23.1 ± 1.52 | 10.5 ± 0.6 | 0.99 ± 0.11 | 60.2 ± 4.74 | 49.2 ± 0.99 | 29.1 ± 1.26 | 
13 | CN(C)CCCN1c2ccccc2CCc2ccccc21 [Imipramine] | 0.9 ± 0.05 | 0.82 ± 0.09 | 0.62 ± 0.04 | 1.08 ± 0.05 | 0.6 ± 0.06 | 0.83 ± 0.08 | 
14 | CC(C)(C)NC(=O)[C@@H]1CN(Cc2cccnc2)CCN1C[C@@H](O)C[C@@H](Cc1ccccc1)C(=O)N[C@H]1c2ccccc2C[C@H]1O [Indinavir] | 11.2 ± 2.53 | 34.8 ± 10.4 | 0.93 ± 0.31 | 33.2 ± 1.69 | 29.7 ± 3.69 | 10.9 ± 1.21 | 
15 | CCN(CC)CCNC(=O)c1cc(Cl)c(N)cc1OC [Metoclopramide] | 2.55 ± 0.21 | 1.44 ± 0.14 | 0.85 ± 0.07 | 5.55 ± 0.43 | 2.42 ± 0.33 | 3.02 ± 0.28 | 
16 | COCCc1ccc(OCC(O)CNC(C)C)cc1 (stereo not drawn) [Metoprolol] | 0.92 ± 0.08 | 0.74 ± 0.05 | 0.74 ± 0.05 | 1.53 ± 0.15 | 0.71 ± 0.11 | 0.97 ± 0.11 | 
17 | Cc1cccc(C)c1OCC(C)N (stereo not drawn) [Mexiletine] | 0.64 ± 0.16 | 0.51 ± 0.15 | 0.36 ± 0.05 | 0.44 ± 0.03 | 0.71 ± 0.05 | 0.42 ± 0.08 | 
18 | Cc1ncc2n1-c1ccc(Cl)cc1C(c1ccccc1F)=NC2 [Midazolam] | 0.4 ± 0.06 | 0.43 ± 0.05 | 0.43 ± 0.04 | 0.53 ± 0.03 | 0.57 ± 0.06 | 0.28 ± 0.06 | 
19 | O=C1c2c(O)ccc(O)c2C(=O)c2c(NCCNCCO)ccc(NCCNCCO)c21 [Mitoxantrone] | 28.6 ± 4.05 | 40.3 ± 2.47 | 1.15 ± 0.14 | 5.66 ± 0.54 | 55.6 ± 10.8 | 17.6 ± 1.56 | 
20 | CC(=O)O[C@H]1C(=O)[C@@]2(C)[C@H]([C@H](OC(=O)c3ccccc3)[C@]3(O)C[C@H](OC(=O)[C@H](O)[C@@H](NC(=O)c4ccccc4)c4ccccc4)C(C)=C1C3(C)C)[C@]1(OC(C)=O)CO[C@@H]1C[C@@H]2O [Paclitaxel] | 57.7 ± 17 | 33.4 ± 5.69 | 2.52 ± 0.51 | 40.2 ± 12.6 | 63.8 ± 28.5 | 82.9 ± 41.1 | 
21 | Cc1nc2n(c(=O)c1CCN1CCC(c3noc4cc(F)ccc34)CC1)CCCC2O (stereo not drawn) [Paliperidone] | 8.26 ± 0.88 | 2.47 ± 0.41 | 0.79 ± 0.1 | 19.8 ± 2.06 | 5.82 ± 1.79 | 6.06 ± 1.45 | 
22 | CN(C)CCC(c1ccccc1)c1ccccn1 (stereo not drawn) [Pheniramine] | 1.1 ± 0.1 | 0.99 ± 0.02 | 0.78 ± 0.04 | 1.45 ± 0.05 | 1.02 ± 0.03 | 1.09 ± 0.03 | 
23 | COc1cc2nc(N3CCN(C(=O)c4ccco4)CC3)nc(N)c2cc1OC [Prazosin] | 5.14 ± 0.39 | 2.42 ± 0.15 | 0.72 ± 0.03 | 9.35 ± 0.45 |  | 6.5 ± 0.22 | 14.79 ± 1.68
24 | C[C@]12C=CC(=O)C=C1CC[C@@H]1[C@@H]2C(=O)C[C@@]2(C)[C@H]1CC[C@]2(O)C(=O)CO [Prednisone] | 6.6 ± 0.57 | 4.41 ± 0.52 | 0.82 ± 0.11 | 17.3 ± 2.38 | 1.33 ± 0.1 | 9.6 ± 1.82 | 
25 | CC(C)NCC(O)COc1cccc2ccccc12 (stereo not drawn) [Propranolol] | 0.92 ± 0.1 | 0.66 ± 0.06 | 0.54 ± 0.06 | 0.88 ± 0.08 | 0.71 ± 0.15 | 0.73 ± 0.08 | 
26 | CNC(=C[N+](=O)[O-])NCCSCc1ccc(CN(C)C)o1 [Ranitidine] | 2.09 ± 0.3 | 2.14 ± 0.25 | 0.91 ± 0.06 | 2.89 ± 0.15 | 10.3 ± 0.96 | 2.63 ± 0.19 | 
27 | CN[C@H]1CC[C@@H](c2ccc(Cl)c(Cl)c2)c2ccccc21 [Sertraline] | 2.93 ± 0.43 | 5.65 ± 0.81 | 3.57 ± 0.3 | 3.1 ± 0.34 | 3.7 ± 0.67 | 2.74 ± 0.28 | 
28 | Nc1c2c(nc3ccccc13)CCCC2 [Tacrine] | 0.99 ± 0.03 | 0.83 ± 0.02 | 0.81 ± 0.02 | 0.93 ± 0.04 | 1.19 ± 0.07 | 0.88 ± 0.02 | 
